Assay results taken from PubChem BioAssay (NCI).
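In this assay, cells in 96-well plates receive the compound at five concentrations for 48 hours. Endpoints are linearly interpolated between the surrounding concentrations. Definition used: TGI = concentration required for complete inhibition of growth.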

Tested on: UO-31 renal
Assay: growth of human tumour cells (NCI), 48 h

Row | Compound | TGI
1 | COc1cc(CO)c(CC(=O)NCCCc2ccccc2)cc1OC | > 100 µM
2 | Nc1nc(SCc2ccc([N+](=O)[O-])cc2)nc2c1ncn2C1OC(CO)C(O)C1O (stereo not given) | > 100 µM
3 | CC(C)C1=CC23CCC4C(C)(C(=O)O)CCCC4(C)C2CC1C1C(=O)N(c2ccccc2N2C(=O)C4C5CC6C7(C)CCCC(C)(C(=O)O)C7CCC6(C=C5C(C)C)C4C2=O)C(=O)C13 (stereo not given) | 32.3 µM
4 | C=CCC(N(C)C(=O)[C@H](Cc1ccccc1)NC(=O)OCc1ccccc1)P(=O)(Oc1ccccc1)Oc1ccccc1 (stereo not given in full) | > 100 µM

Tested on: SF-268 CNS
Assay: growth of human tumour cells (NCI), 48 h

Row | Compound | TGI
5 | Cc1ccc(N2C(=O)CS/C2=C(\C#N)c2nc3ccccc3[nH]2)cc1 | > 100 µM
6 | Cn1c(O)c(C=Nc2ccccc2[N+](=O)[O-])c(=O)n(C)c1=O | > 100 µM
7 | CN1CNc2nc(N)n(C)c(=O)c2C1 | > 10 µM
8 | CCOc1ccc(/C(Cl)=C(\C=O)c2ccc(OC)c(OC)c2)cc1OCC | > 100 µM
9 | COC(=O)C(C#CCCCCC#CC(NC(=O)OCc1ccccc1)(C(=O)OC)C(F)(F)F)(NC(=O)OCc1ccccc1)C(F)(F)F (stereo not given) | > 100 µM
10 | N#C/C(c1nc2ccccc2[nH]1)=c1\s/c(=C/c2ccc(Cl)cc2)c(=O)n1-c1ccccc1 | > 100 µM
11 | COC(=O)CC1NC(=O)[C@@H]1C(C)O (stereo not given in full) | > 100 µM
12 | O=C1c2ccccc2OP(=O)(OCC(F)(F)F)OC1(C(F)(F)F)C(F)(F)F (stereo not given) | > 100 µM
13 | COc1ccc(N=Cc2ccc(N(CCC#N)S(=O)(=O)c3ccccc3)cc2)cc1 | > 100 µM
14 | CCOC(=O)/C=C/n1c2ccccc2c(=O)c2ccccc21 | > 100 µM
15 | Nc1nc(SCc2ccc([N+](=O)[O-])cc2)nc2c1ncn2C1OC(CO)C(O)C1O (stereo not given) | > 100 µM
16 | CC(C)C1=CC23CCC4C(C)(C(=O)O)CCCC4(C)C2CC1C1C(=O)N(c2ccccc2N2C(=O)C4C5CC6C7(C)CCCC(C)(C(=O)O)C7CCC6(C=C5C(C)C)C4C2=O)C(=O)C13 (stereo not given) | 16.5 µM
17 | C=CCC(N(C)C(=O)[C@H](Cc1ccccc1)NC(=O)OCc1ccccc1)P(=O)(Oc1ccccc1)Oc1ccccc1 (stereo not given in full) | > 100 µM

Tested on: SR leukemia
Assay: growth of human tumour cells (NCI), 48 h

Row | Compound | TGI
18 | Cc1ccc(N2C(=O)CS/C2=C(\C#N)c2nc3ccccc3[nH]2)cc1 | > 100 µM
19 | Cn1c(O)c(C=Nc2ccccc2[N+](=O)[O-])c(=O)n(C)c1=O | > 100 µM
20 | CN1CNc2nc(N)n(C)c(=O)c2C1 | > 10 µM
21 | CCOc1ccc(/C(Cl)=C(\C=O)c2ccc(OC)c(OC)c2)cc1OCC | 50.8 µM
22 | N#C/C(c1nc2ccccc2[nH]1)=c1\s/c(=C/c2ccc(Cl)cc2)c(=O)n1-c1ccccc1 | > 100 µM
23 | COC(=O)CC1NC(=O)[C@@H]1C(C)O (stereo not given in full) | > 100 µM
24 | O=C1c2ccccc2OP(=O)(OCC(F)(F)F)OC1(C(F)(F)F)C(F)(F)F (stereo not given) | > 100 µM
25 | COc1ccc(N=Cc2ccc(N(CCC#N)S(=O)(=O)c3ccccc3)cc2)cc1 | > 100 µM
26 | CCOC(=O)/C=C/n1c2ccccc2c(=O)c2ccccc21 | > 100 µM
27 | COc1cc(CO)c(CC(=O)NCCCc2ccccc2)cc1OC | > 100 µM
28 | Nc1nc(SCc2ccc([N+](=O)[O-])cc2)nc2c1ncn2C1OC(CO)C(O)C1O (stereo not given) | > 100 µM
29 | CC(C)C1=CC23CCC4C(C)(C(=O)O)CCCC4(C)C2CC1C1C(=O)N(c2ccccc2N2C(=O)C4C5CC6C7(C)CCCC(C)(C(=O)O)C7CCC6(C=C5C(C)C)C4C2=O)C(=O)C13 (stereo not given) | 17.3 µM
30 | C=CCC(N(C)C(=O)[C@H](Cc1ccccc1)NC(=O)OCc1ccccc1)P(=O)(Oc1ccccc1)Oc1ccccc1 (stereo not given in full) | > 100 µM

Tested on: NCI-H226 lung
Assay: growth of human tumour cells (NCI), 48 h

Row | Compound | TGI
31 | Cc1ccc(N2C(=O)CS/C2=C(\C#N)c2nc3ccccc3[nH]2)cc1 | > 100 µM
32 | Cn1c(O)c(C=Nc2ccccc2[N+](=O)[O-])c(=O)n(C)c1=O | > 100 µM
33 | CN1CNc2nc(N)n(C)c(=O)c2C1 | > 10 µM
34 | CCOc1ccc(/C(Cl)=C(\C=O)c2ccc(OC)c(OC)c2)cc1OCC | > 100 µM
35 | COC(=O)C(C#CCCCCC#CC(NC(=O)OCc1ccccc1)(C(=O)OC)C(F)(F)F)(NC(=O)OCc1ccccc1)C(F)(F)F (stereo not given) | > 100 µM
36 | N#C/C(c1nc2ccccc2[nH]1)=c1\s/c(=C/c2ccc(Cl)cc2)c(=O)n1-c1ccccc1 | > 100 µM
37 | COC(=O)CC1NC(=O)[C@@H]1C(C)O (stereo not given in full) | > 100 µM
38 | O=C1c2ccccc2OP(=O)(OCC(F)(F)F)OC1(C(F)(F)F)C(F)(F)F (stereo not given) | > 100 µM
39 | COc1ccc(N=Cc2ccc(N(CCC#N)S(=O)(=O)c3ccccc3)cc2)cc1 | > 100 µM
40 | CCOC(=O)/C=C/n1c2ccccc2c(=O)c2ccccc21 | > 100 µM
41 | COc1cc(CO)c(CC(=O)NCCCc2ccccc2)cc1OC | > 100 µM
42 | Nc1nc(SCc2ccc([N+](=O)[O-])cc2)nc2c1ncn2C1OC(CO)C(O)C1O (stereo not given) | > 100 µM
43 | CC(C)C1=CC23CCC4C(C)(C(=O)O)CCCC4(C)C2CC1C1C(=O)N(c2ccccc2N2C(=O)C4C5CC6C7(C)CCCC(C)(C(=O)O)C7CCC6(C=C5C(C)C)C4C2=O)C(=O)C13 (stereo not given) | 30.2 µM
44 | C=CCC(N(C)C(=O)[C@H](Cc1ccccc1)NC(=O)OCc1ccccc1)P(=O)(Oc1ccccc1)Oc1ccccc1 (stereo not given in full) | > 100 µM

Tested on: ACHN renal
Assay: growth of human tumour cells (NCI), 48 h

Row | Compound | TGI
45 | Cc1ccc(N2C(=O)CS/C2=C(\C#N)c2nc3ccccc3[nH]2)cc1 | > 100 µM
46 | Cn1c(O)c(C=Nc2ccccc2[N+](=O)[O-])c(=O)n(C)c1=O | > 100 µM
47 | CN1CNc2nc(N)n(C)c(=O)c2C1 | > 10 µM
48 | CCOc1ccc(/C(Cl)=C(\C=O)c2ccc(OC)c(OC)c2)cc1OCC | > 100 µM
49 | COC(=O)C(C#CCCCCC#CC(NC(=O)OCc1ccccc1)(C(=O)OC)C(F)(F)F)(NC(=O)OCc1ccccc1)C(F)(F)F (stereo not given) | > 100 µM
50 | N#C/C(c1nc2ccccc2[nH]1)=c1\s/c(=C/c2ccc(Cl)cc2)c(=O)n1-c1ccccc1 | > 100 µM
51 | COC(=O)CC1NC(=O)[C@@H]1C(C)O (stereo not given in full) | > 100 µM
52 | O=C1c2ccccc2OP(=O)(OCC(F)(F)F)OC1(C(F)(F)F)C(F)(F)F (stereo not given) | > 100 µM
53 | COc1ccc(N=Cc2ccc(N(CCC#N)S(=O)(=O)c3ccccc3)cc2)cc1 | > 100 µM
54 | CCOC(=O)/C=C/n1c2ccccc2c(=O)c2ccccc21 | > 100 µM
55 | COc1cc(CO)c(CC(=O)NCCCc2ccccc2)cc1OC | > 100 µM
56 | Nc1nc(SCc2ccc([N+](=O)[O-])cc2)nc2c1ncn2C1OC(CO)C(O)C1O (stereo not given) | > 100 µM
57 | CC(C)C1=CC23CCC4C(C)(C(=O)O)CCCC4(C)C2CC1C1C(=O)N(c2ccccc2N2C(=O)C4C5CC6C7(C)CCCC(C)(C(=O)O)C7CCC6(C=C5C(C)C)C4C2=O)C(=O)C13 (stereo not given) | 21.8 µM
58 | C=CCC(N(C)C(=O)[C@H](Cc1ccccc1)NC(=O)OCc1ccccc1)P(=O)(Oc1ccccc1)Oc1ccccc1 (stereo not given in full) | > 100 µM

Tested on: MALME-3M melanoma
Assay: growth of human tumour cells (NCI), 48 h

Row | Compound | TGI
59 | Cc1ccc(N2C(=O)CS/C2=C(\C#N)c2nc3ccccc3[nH]2)cc1 | > 100 µM
60 | Cn1c(O)c(C=Nc2ccccc2[N+](=O)[O-])c(=O)n(C)c1=O | > 100 µM
61 | CN1CNc2nc(N)n(C)c(=O)c2C1 | > 10 µM
62 | CCOc1ccc(/C(Cl)=C(\C=O)c2ccc(OC)c(OC)c2)cc1OCC | > 100 µM
63 | COC(=O)C(C#CCCCCC#CC(NC(=O)OCc1ccccc1)(C(=O)OC)C(F)(F)F)(NC(=O)OCc1ccccc1)C(F)(F)F (stereo not given) | > 100 µM
64 | N#C/C(c1nc2ccccc2[nH]1)=c1\s/c(=C/c2ccc(Cl)cc2)c(=O)n1-c1ccccc1 | > 100 µM
65 | COC(=O)CC1NC(=O)[C@@H]1C(C)O (stereo not given in full) | > 100 µM
66 | COc1ccc(N=Cc2ccc(N(CCC#N)S(=O)(=O)c3ccccc3)cc2)cc1 | > 100 µM
67 | CCOC(=O)/C=C/n1c2ccccc2c(=O)c2ccccc21 | > 100 µM
68 | COc1cc(CO)c(CC(=O)NCCCc2ccccc2)cc1OC | > 100 µM
69 | Nc1nc(SCc2ccc([N+](=O)[O-])cc2)nc2c1ncn2C1OC(CO)C(O)C1O (stereo not given) | > 100 µM
70 | CC(C)C1=CC23CCC4C(C)(C(=O)O)CCCC4(C)C2CC1C1C(=O)N(c2ccccc2N2C(=O)C4C5CC6C7(C)CCCC(C)(C(=O)O)C7CCC6(C=C5C(C)C)C4C2=O)C(=O)C13 (stereo not given) | 28.3 µM
71 | C=CCC(N(C)C(=O)[C@H](Cc1ccccc1)NC(=O)OCc1ccccc1)P(=O)(Oc1ccccc1)Oc1ccccc1 (stereo not given in full) | > 100 µM

Tested on: CCRF-CEM leukemia
Assay: growth of human tumour cells (NCI), 48 h

Row | Compound | TGI
72 | Cc1ccc(N2C(=O)CS/C2=C(\C#N)c2nc3ccccc3[nH]2)cc1 | > 100 µM
73 | Cn1c(O)c(C=Nc2ccccc2[N+](=O)[O-])c(=O)n(C)c1=O | > 100 µM
74 | CN1CNc2nc(N)n(C)c(=O)c2C1 | > 10 µM
75 | CCOc1ccc(/C(Cl)=C(\C=O)c2ccc(OC)c(OC)c2)cc1OCC | > 100 µM
76 | COC(=O)C(C#CCCCCC#CC(NC(=O)OCc1ccccc1)(C(=O)OC)C(F)(F)F)(NC(=O)OCc1ccccc1)C(F)(F)F (stereo not given) | > 100 µM
77 | N#C/C(c1nc2ccccc2[nH]1)=c1\s/c(=C/c2ccc(Cl)cc2)c(=O)n1-c1ccccc1 | > 100 µM
78 | COC(=O)CC1NC(=O)[C@@H]1C(C)O (stereo not given in full) | > 100 µM
79 | O=C1c2ccccc2OP(=O)(OCC(F)(F)F)OC1(C(F)(F)F)C(F)(F)F (stereo not given) | > 100 µM
80 | COc1ccc(N=Cc2ccc(N(CCC#N)S(=O)(=O)c3ccccc3)cc2)cc1 | > 100 µM
81 | CCOC(=O)/C=C/n1c2ccccc2c(=O)c2ccccc21 | > 100 µM
82 | COc1cc(CO)c(CC(=O)NCCCc2ccccc2)cc1OC | > 100 µM
83 | Nc1nc(SCc2ccc([N+](=O)[O-])cc2)nc2c1ncn2C1OC(CO)C(O)C1O (stereo not given) | > 100 µM
84 | CC(C)C1=CC23CCC4C(C)(C(=O)O)CCCC4(C)C2CC1C1C(=O)N(c2ccccc2N2C(=O)C4C5CC6C7(C)CCCC(C)(C(=O)O)C7CCC6(C=C5C(C)C)C4C2=O)C(=O)C13 (stereo not given) | 22.1 µM
85 | C=CCC(N(C)C(=O)[C@H](Cc1ccccc1)NC(=O)OCc1ccccc1)P(=O)(Oc1ccccc1)Oc1ccccc1 (stereo not given in full) | > 100 µM
